Target: KDR (human) (UniProt P35968)
Experiment: HTRF

Sequence of KDR (human) (P35968 whole entry, looked up): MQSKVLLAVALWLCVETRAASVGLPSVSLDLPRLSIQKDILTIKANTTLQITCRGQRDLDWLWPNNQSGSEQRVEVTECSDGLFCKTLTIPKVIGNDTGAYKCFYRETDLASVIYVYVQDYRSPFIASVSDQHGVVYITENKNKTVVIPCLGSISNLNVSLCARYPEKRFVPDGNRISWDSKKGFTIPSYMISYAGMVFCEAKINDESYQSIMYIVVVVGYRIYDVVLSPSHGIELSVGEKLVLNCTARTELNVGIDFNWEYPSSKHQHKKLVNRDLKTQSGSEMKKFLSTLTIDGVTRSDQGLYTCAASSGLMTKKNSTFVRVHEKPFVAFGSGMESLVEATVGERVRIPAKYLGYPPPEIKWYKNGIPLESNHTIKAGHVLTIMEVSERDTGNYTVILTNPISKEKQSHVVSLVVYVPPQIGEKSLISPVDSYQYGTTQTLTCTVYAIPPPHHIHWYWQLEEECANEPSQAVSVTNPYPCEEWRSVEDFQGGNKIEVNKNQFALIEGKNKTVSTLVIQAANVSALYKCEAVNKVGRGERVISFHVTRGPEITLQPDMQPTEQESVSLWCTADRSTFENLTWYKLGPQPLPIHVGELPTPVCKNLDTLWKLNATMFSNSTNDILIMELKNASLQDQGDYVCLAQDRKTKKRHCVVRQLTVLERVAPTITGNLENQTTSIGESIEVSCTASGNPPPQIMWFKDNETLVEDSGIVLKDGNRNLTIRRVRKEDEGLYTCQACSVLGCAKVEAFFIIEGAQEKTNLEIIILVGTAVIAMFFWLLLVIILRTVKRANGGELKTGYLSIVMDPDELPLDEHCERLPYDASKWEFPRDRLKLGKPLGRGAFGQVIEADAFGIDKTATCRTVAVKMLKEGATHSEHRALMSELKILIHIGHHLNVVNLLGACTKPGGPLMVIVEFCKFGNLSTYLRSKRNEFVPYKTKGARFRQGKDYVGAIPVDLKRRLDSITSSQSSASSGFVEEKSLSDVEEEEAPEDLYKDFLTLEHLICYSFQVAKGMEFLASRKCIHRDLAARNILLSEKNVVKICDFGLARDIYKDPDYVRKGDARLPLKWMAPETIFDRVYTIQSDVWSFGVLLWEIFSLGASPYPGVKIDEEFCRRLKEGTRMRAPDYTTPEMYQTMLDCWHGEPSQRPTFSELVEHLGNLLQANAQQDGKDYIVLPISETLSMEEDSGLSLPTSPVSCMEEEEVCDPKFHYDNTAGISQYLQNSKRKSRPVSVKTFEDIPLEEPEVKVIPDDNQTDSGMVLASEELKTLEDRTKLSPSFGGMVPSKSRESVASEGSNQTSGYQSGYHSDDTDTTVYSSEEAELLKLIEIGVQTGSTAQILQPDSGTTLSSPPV

Row | SMILES | Ki [µM]
1 | CCn1c(=O)/c(=C\Nc2ccccc2)s/c1=C(/C#N)C(=O)O | 3.98

Target: CDC7 (human) (UniProt O00311)
Experiment: Flashplate

Sequence of CDC7 (human) (O00311 whole entry, looked up): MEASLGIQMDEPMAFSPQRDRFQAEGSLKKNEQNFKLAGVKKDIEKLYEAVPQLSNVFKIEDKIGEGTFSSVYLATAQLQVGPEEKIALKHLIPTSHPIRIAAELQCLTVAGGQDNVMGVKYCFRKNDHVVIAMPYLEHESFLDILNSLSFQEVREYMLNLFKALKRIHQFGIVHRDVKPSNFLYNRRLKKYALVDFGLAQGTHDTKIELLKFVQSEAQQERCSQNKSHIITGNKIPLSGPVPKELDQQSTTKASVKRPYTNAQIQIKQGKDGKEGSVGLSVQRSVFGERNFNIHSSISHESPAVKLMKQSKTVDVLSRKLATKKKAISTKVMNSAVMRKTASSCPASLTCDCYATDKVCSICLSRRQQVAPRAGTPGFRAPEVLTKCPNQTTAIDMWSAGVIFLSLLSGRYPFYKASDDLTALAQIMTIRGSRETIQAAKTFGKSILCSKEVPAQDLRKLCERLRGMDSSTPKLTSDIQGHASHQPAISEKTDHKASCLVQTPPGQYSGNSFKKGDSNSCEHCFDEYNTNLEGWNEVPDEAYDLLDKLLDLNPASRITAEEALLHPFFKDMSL

Row | SMILES | Ki [µM]
2 | CN(C)c1ccc(-c2c(-c3ccc4[nH]nc(N)c4c3)nnn2Cc2ccccc2)cc1 | 0.000398
3 | O=[N+]([O-])c1ccc(-n2nc(-c3ccncc3)cc2O)cc1 | 0.501

Target: CDK19 (human) (UniProt Q9BWU1)
Experiment: Flashplate

Sequence of CDK19 (human) (Q9BWU1 whole entry, looked up): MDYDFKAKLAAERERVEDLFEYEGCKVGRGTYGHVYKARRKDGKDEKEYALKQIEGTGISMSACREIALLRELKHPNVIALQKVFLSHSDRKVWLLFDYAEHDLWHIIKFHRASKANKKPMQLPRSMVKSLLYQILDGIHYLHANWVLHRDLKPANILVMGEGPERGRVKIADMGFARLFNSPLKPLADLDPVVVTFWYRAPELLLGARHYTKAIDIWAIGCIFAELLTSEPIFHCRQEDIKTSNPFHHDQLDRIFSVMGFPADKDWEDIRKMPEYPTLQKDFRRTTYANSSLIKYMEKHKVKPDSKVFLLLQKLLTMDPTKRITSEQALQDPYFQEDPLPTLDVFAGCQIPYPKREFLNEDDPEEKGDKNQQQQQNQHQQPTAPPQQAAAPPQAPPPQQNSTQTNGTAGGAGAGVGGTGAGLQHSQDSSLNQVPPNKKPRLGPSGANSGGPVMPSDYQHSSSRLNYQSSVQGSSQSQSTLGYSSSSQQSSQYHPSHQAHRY

Row | SMILES | Ki [µM]
4 | O=[N+]([O-])c1ccc(-n2nc(-c3ccncc3)cc2O)cc1 | > 100
5 | Oc1cc(Cc2nc3ccccc3[nH]2)nn1-c1ccccc1 | > 100

Target: CDK5 (human) (UniProt Q00535)
Experiment: Flashplate

Sequence of CDK5 (human) (Q00535 whole entry, looked up): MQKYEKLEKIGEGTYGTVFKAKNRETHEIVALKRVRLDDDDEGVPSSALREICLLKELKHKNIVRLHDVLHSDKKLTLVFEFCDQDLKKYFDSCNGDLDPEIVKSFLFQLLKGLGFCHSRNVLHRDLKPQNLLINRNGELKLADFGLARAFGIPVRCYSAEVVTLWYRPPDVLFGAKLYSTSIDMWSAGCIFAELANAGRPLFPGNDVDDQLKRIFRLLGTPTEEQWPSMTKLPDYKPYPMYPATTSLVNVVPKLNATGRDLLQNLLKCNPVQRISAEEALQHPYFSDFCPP

Row | SMILES | Ki [µM]
6 | O=C(O)c1ccccc1Nc1ncnc(Nc2ccc3cn[nH]c3c2)n1 | 0.251

Target: CHEK2 (human) (UniProt O96017)
Experiment: Flashplate

Sequence of CHEK2 (human) (O96017 whole entry, looked up): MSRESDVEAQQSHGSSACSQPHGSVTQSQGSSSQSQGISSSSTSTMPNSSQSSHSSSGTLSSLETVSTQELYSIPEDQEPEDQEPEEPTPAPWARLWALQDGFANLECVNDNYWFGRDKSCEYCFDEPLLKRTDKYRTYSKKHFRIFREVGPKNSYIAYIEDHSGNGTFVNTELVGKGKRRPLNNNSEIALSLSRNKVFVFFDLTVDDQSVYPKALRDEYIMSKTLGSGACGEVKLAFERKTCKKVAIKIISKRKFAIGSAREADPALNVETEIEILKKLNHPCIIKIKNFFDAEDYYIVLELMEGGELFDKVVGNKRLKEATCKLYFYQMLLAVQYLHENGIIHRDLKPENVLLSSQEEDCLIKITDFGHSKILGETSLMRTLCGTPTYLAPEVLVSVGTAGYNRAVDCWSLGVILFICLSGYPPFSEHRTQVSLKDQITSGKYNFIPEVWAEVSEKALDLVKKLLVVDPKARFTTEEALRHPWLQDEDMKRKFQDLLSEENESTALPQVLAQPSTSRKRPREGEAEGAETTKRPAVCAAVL

Row | SMILES | Ki [µM]
7 | CCn1c(=O)/c(=C\Nc2ccccc2)s/c1=C(/C#N)C(=O)O | 3.98

Target: CLK4 (human) (UniProt Q9HAZ1)
Experiment: Flashplate

Sequence of CLK4 (human) (Q9HAZ1 whole entry, looked up): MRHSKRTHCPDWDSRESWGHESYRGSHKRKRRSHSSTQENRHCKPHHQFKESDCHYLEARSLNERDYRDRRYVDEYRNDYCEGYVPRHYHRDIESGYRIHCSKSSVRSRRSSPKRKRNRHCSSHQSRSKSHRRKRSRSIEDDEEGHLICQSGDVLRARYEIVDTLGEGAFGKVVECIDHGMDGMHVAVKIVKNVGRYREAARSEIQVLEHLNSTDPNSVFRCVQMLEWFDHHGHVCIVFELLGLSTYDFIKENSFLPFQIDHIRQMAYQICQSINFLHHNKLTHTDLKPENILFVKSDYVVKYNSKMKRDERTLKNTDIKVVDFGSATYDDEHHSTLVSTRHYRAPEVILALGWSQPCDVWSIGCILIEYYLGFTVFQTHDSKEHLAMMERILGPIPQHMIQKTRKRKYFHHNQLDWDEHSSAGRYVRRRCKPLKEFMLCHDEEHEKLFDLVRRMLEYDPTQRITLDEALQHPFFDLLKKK

Row | SMILES | Ki [µM]
8 | Oc1cc(Cc2nc3ccccc3[nH]2)nn1-c1ccccc1 | 1.26

Target: DYRK1A (human) (UniProt Q13627)
Experiment: Flashplate

Row | SMILES | Ki [µM]
9 | O=C(O)c1ccccc1Nc1ncnc(Nc2ccc3cn[nH]c3c2)n1 | 0.251

Target: MARK3 (human) (UniProt P27448)
Experiment: Flashplate

Sequence of MARK3 (human) (P27448 whole entry, looked up): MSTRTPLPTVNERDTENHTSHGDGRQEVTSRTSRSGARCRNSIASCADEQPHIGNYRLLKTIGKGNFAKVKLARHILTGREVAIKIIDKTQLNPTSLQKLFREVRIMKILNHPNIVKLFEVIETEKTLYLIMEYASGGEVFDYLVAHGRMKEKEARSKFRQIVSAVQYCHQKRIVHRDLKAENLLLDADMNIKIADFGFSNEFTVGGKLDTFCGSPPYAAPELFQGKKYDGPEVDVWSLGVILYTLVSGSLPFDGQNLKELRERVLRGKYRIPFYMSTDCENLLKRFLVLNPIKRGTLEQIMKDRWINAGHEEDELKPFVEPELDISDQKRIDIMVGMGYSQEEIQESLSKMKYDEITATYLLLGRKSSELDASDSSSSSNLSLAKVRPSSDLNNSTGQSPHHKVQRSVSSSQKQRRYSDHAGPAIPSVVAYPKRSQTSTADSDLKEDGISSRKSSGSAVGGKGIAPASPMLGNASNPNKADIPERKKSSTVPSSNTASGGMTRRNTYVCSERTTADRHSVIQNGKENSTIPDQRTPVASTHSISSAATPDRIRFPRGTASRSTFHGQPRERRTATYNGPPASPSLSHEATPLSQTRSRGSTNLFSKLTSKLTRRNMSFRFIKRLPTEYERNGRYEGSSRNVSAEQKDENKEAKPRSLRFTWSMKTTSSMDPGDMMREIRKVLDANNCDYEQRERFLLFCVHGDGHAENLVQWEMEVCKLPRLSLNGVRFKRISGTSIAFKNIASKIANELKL

Row | SMILES | Ki [µM]
10 | CCn1c(=O)/c(=C\Nc2ccccc2)s/c1=C(/C#N)C(=O)O | 3.98

Target: PLK3 (human) (UniProt Q9H4B4)
Experiment: Flashplate

Row | SMILES | Ki [µM]
11 | COc1cc2ncn(-c3cc(OCc4ccccc4C(F)(F)F)c(C(N)=O)s3)c2cc1OC | 0.00794

Target: SGK1 (human) (UniProt O00141)
Experiment: Flashplate

Sequence of SGK1 (human) (O00141 whole entry, looked up): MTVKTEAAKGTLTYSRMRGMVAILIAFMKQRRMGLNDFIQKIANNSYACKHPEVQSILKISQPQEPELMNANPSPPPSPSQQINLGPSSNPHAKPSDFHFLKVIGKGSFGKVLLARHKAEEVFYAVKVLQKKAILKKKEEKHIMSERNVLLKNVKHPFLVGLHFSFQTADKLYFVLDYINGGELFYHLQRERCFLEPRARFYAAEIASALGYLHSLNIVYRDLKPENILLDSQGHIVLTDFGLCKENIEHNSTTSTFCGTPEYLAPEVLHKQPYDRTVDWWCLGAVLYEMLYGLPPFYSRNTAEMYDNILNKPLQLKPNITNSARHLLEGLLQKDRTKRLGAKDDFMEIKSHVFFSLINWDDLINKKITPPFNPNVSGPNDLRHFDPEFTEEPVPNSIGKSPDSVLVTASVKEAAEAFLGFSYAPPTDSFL

Row | SMILES | Ki [µM]
12 | CCn1c(=O)/c(=C\Nc2ccccc2)s/c1=C(/C#N)C(=O)O | 3.98
13 | COc1cc2ncn(-c3cc(OCc4ccccc4C(F)(F)F)c(C(N)=O)s3)c2cc1OC | > 10
14 | Cc1cnc(Nc2cccc(S(N)(=O)=O)c2)nc1Nc1ccc(OCC(N)=O)cc1 | 6.31
15 | Fc1ccc(-c2nc3cnccn3c2-c2ccnc(NCC3CC3)n2)cc1 | > 10
16 | Nc1ncnc2c1c(I)nn2[C@H]1CC[C@@H](O)CC1 | 2
17 | Nc1n[nH]c2cccc(-c3ccc(NC(=O)Nc4cc(C(=O)O)ccc4F)cc3)c12 | 0.398
18 | c1cnc2nc(-c3ccc4[nH]ncc4c3)c(NC3CCCCC3)n2c1 | 2.51
19 | COCCn1cc(-c2ccncn2)c(-c2ccc(Cl)cc2)n1 | > 10
20 | CN(C)CCCOc1cc2c(c(-c3ccc(Nc4nc5ccccc5o4)cc3)c1)CNC2=O | > 10
21 | CC(C)n1nnc2ccc(-c3c(-c4ccc(F)cc4F)nc4occn34)cc21 | > 10
22 | Cc1ccc(F)c(NC(=O)Nc2ccc(-c3cncc4c3c(N)nn4C)cc2)c1 | > 10
23 | CCN1CCN(CCCC(=O)Nc2n[nH]c3nnc(-c4cccc(F)c4F)cc23)CC1 | > 10
24 | O=c1c2c([nH]c3cc(-c4ccco4)nn13)CSC2 | > 10
25 | NC(=O)c1cn(-c2ccc(O)cc2Cl)c2cc(-c3ccncc3)ccc2c1=O | 7.94
26 | O=C(Nc1cnccn1)Nc1ccnc2c(F)cccc12 | > 10
27 | N#CCOc1ccc(Nc2nc(Nc3cccc(S(N)(=O)=O)c3)ncc2Br)cc1 | 0.398
28 | Cc1ccc(CNc2ccc3nnc(-c4ccccc4)n3n2)cc1 | > 10
29 | Cc1c(-c2ccc3[nH]nc(N)c3c2)nnn1Cc1ccccc1 | 0.316
30 | CCC(N)(C#Cc1cnc(N)c2c(-c3ccc(NC(=O)Nc4cccc(C)c4)cc3)csc12)CC | 3.98
31 | COc1cc2c(Oc3ccc4[nH]c(C)cc4c3F)ncnc2cc1OCCCN1CCCC1 | > 10
32 | CNC(=O)COc1ccc(Nc2nc(Nc3ccc(C)c(S(N)(=O)=O)c3)ncc2F)cc1 | > 10
33 | Cc1cc(O)ccc1-n1c2cc(Cl)ccc2c(=O)c2c(N)nc(N)nc21 | 5.01
34 | CC(C)(C)c1cnc(CSc2cnc(NC(=O)C3CCNCC3)s2)o1 | > 6.31
35 | Cc1cccc(NC(=O)Nc2ccc(-c3noc4ncnc(N)c34)cc2)c1 | > 10
36 | c1ccc(Nc2nc(-c3ccc4[nH]ncc4c3)cs2)cc1 | 2.51

Row | SMILES | Ki [µM]
37 | Cc1ccc(NC(=O)Nc2ccc(-c3csc4c(-c5cnn(C)c5)cnc(N)c34)cc2)cc1 | > 10
38 | Cc1cc(C)cc(NC(=O)Nc2ccc(-c3cccc4snc(N)c34)cc2)c1 | > 10
39 | O=C(NCc1ccc(Cl)cc1)c1cc2c(-c3ccccc3)n[nH]c2s1 | 1
40 | O=C(O)c1ccccc1Nc1ccnc(Nc2cccc(O)c2)n1 | 0.794
41 | NC(=O)c1cc2c(-c3cc(C(F)(F)F)cc(C(F)(F)F)c3)cncc2s1 | > 10
42 | Cc1cccc(NC(=O)Cc2ccc(-c3cccc4[nH]nc(N)c34)cc2)c1 | 0.794
43 | CCCC(=O)Nc1n[nH]c2nc3ccccc3cc12 | > 10
44 | CC[C@H](CO)Nc1nc(NCc2ccccc2)c2ncn(C(C)C)c2n1 | > 10
45 | CC(C)Oc1nccn2c(-c3ccnc(NCC(C)(C)CO)n3)c(-c3ccc(F)cc3F)nc12 | > 10
46 | O=C(NCc1ccc(Cl)cc1)Nc1cccc2[nH]ncc12 | > 10
47 | CCNC(=O)c1cnc(N)c2c(-c3ccc(NC(=O)Nc4cccc(F)c4)cc3)csc12 | > 10
48 | CN(C)c1cccc2c(S(=O)(=O)N(CCN)c3cncc(-c4ccc5cnccc5c4)c3)cccc12 | 3.98
49 | Cc1ccc(C(=O)Nc2c(C(N)=O)sc3ccc(Cl)c(Cl)c23)cc1 | 3.16
50 | CC1=NN(c2ccc(Cl)c(Cl)c2)C(=O)/C1=C\c1c(C)c(C#N)c2nc3ccccc3n2c1O | > 10
51 | Cn1cc(-c2cnn3c(N)c(-c4ccc(NC(=O)Nc5cccc(C(F)(F)F)c5)cc4)cnc23)cn1 | > 10
52 | COc1cc(-c2nn([C@H]3CC[C@H](N4CCN(C(C)=O)CC4)CC3)c3ncnc(N)c23)ccc1NC(=O)c1cc2ccccc2n1C | > 10
53 | NC(=O)c1cc2c(-c3ccc(F)cc3)cncc2s1 | 3.98
54 | Cc1cc(C)c2c(n1)sc1c(N)ncnc12 | 3.16
55 | O=C(N[C@H](CO)c1ccccc1)c1ccc(-c2ccncc2)cc1 | 1.58
56 | CC(=O)Nc1cc(N)c(C#N)c(-c2ccsc2)n1 | > 10
57 | CN1CCC[C@H]1COc1cncc(CCc2ccccc2)c1 | > 10
58 | NCC(NC(=O)c1ccc(-c2ccncc2)cc1)c1ccccc1 (stereo not given) | 0.316
59 | CC(C)(C)OC(=O)n1ncc2cc(Nc3c(NCc4ccc(S(N)(=O)=O)cc4)c(=O)c3=O)ccc21 | > 10
60 | Cc1ccc(NC(=O)Nc2ccc(-c3coc4ncnc(N)c34)cc2)cc1 | > 10

From the kinase profiling compilation of Christmann-Franck et al. (2016)
